Measurements taken from the OligoGym collection.
Bases are written 5' to 3'; sugars and linkages follow in the same order, as letters with counts (s phosphorothioate, o phosphodiester; PS: all linkages phosphorothioate). The collection does not say whether C is 5-methylated. l = locked nucleic acid (LNA); d = 2'-deoxy (DNA)

target: Tau; experiment: rat primary cortical neurons, FLIPR, 25 uM ASO

Compared with AATAACATTAACCCTT (sugars l4 d8 l4, PS), AATAAGAAAGGAACGC (sugars l3 d9 l4, PS) is higher in calcium oscillation score: 72 % of control for the first, 85.7 % of control for the second.

Going from AATAAGAAAGGAACGC (sugars l3 d10 l3, PS) to AATAAGAAAGGAACGC (sugars l4 d7 l5, PS), the calcium oscillation score falls from 110 % of control to 97.6 % of control.

Compared with AATAAGAAAGGAACGC (sugars l4 d8 l4, PS), AATAAGAAAGGAACGC (sugars l4 d9 l3, PS) is higher in calcium oscillation score: 5.95 % of control for the first, 102 % of control for the second.

Going from AATAAGAAAGGAACGC (sugars l5 d6 l5, PS) to AATAAGAAAGGAACGC (sugars l5 d7 l4, PS), the calcium oscillation score rises from 113 % of control to 121 % of control.

First: AATACAAACAGCCTCCC (sugars l2 d12 l3, PS)
Second: AATACATCAATAGAAGGCAA (sugars l3 d14 l3, PS)
The calcium oscillation score of the first is higher: 61.6 % of control for the first, 16.1 % of control for the second.

First: AATAGATCTTTCCCCTCC (sugars l2 d13 l3, PS)
Second: AATAGCAAACAGGAT (sugars l3 d9 l3, PS)
The calcium oscillation score of the first is higher: 76.7 % of control for the first, 3.83 % of control for the second.

First: AATAGCAAACAGGATA (sugars l3 d10 l3, PS)
Second: AATATCCTTACCATCCTATC (sugars l2 d14 l4, PS)
The calcium oscillation score of the first is higher: 82.4 % of control for the first, 59.1 % of control for the second.

Compared with AATATTACACCATCCA (sugars l4 d8 l4, PS), AATATTACACCATCCAA (sugars l4 d9 l4, PS) is lower in calcium oscillation score: 101 % of control for the first, 95.7 % of control for the second.

First: AATATTACATCAGTCT (sugars l4 d8 l4, PS)
Second: AATCAATTCTCATTTCAACC (sugars l4 d13 l3, PS)
The calcium oscillation score of the first is lower: 34.6 % of control for the first, 63.9 % of control for the second.

Going from “AATCCATTTATATTCTTTTA (sugars l4 d12 l4, PS)” to “AATCCCAGTTTCCCCCA (sugars l4 d11 l2, PS)”, the calcium oscillation score rises from 38.5 % of control to 65.6 % of control.

Going from AATCCTGTGCTTCA (sugars l3 d8 l3, PS) to AATCCTGTGCTTCAG (sugars l3 d9 l3, PS), the calcium oscillation score rises from 9.58 % of control to 57.5 % of control.

Going from AATCCTGTGCTTCAGG (sugars l3 d10 l3, PS) to “AATCCTTAATTTAACCACAT (sugars l4 d13 l3, PS)”, the calcium oscillation score falls from 73 % of control to 56.8 % of control.

Going from “AATGTCCAAAAATCCCC (sugars l2 d11 l4, PS)” to AATTAAATTTCTCCCTG (sugars l4 d9 l4, PS), the calcium oscillation score falls from 53 % of control to 34.1 % of control.

Going from “AATTAACATATTTTTACCT (sugars l4 d11 l4, PS)” to AATTAACCGAACTGCG (sugars l3 d10 l3, PS), the calcium oscillation score rises from 75.1 % of control to 186 % of control.

Compared with AATTAGTCACATACCA (sugars l4 d8 l4, PS), “AATTATTAAATCTTCTCTTA (sugars l4 d12 l4, PS)” is lower in calcium oscillation score: 85 % of control for the first, 62.6 % of control for the second.

First: AATTATTTACACTGTCC (sugars l4 d9 l4, PS)
Second: AATTCACACAACAAACTAT (sugars l4 d11 l4, PS)
The calcium oscillation score of the first is lower: 55.6 % of control for the first, 74.5 % of control for the second.

Going from “AATTCATAAATGACTATACT (sugars l3 d14 l3, PS)” to “AATTCATTTAATTCTCTTCT (sugars l4 d12 l4, PS)”, the calcium oscillation score rises from 40.3 % of control to 86.6 % of control.

Compared with “AATTTACACCCAAACCTA (sugars l2 d12 l4, PS)”, “AATTTACACCCAAACCTAA (sugars l4 d11 l4, PS)” is higher in calcium oscillation score: 81.9 % of control for the first, 106 % of control for the second.

Compared with AATTTAGTCACCATCA (sugars l4 d8 l4, PS), AATTTAGTCACCATCAC (sugars l4 d9 l4, PS) is higher in calcium oscillation score: 62.1 % of control for the first, 79.1 % of control for the second.

Going from “AATTTATTAATTCATAAATG (sugars l3 d14 l3, PS)” to AATTTCACCCTCAGTA (sugars l3 d10 l3, PS), the calcium oscillation score rises from 38.3 % of control to 73 % of control.

Going from “AATTTCAGAGCAAAGTGACC (sugars l3 d14 l3, PS)” to AATTTCTCTAATTGTCC (sugars l4 d9 l4, PS), the calcium oscillation score rises from 2.38 % of control to 69 % of control.

First: AATTTGGAAAGATGAAATTT (sugars l3 d14 l3, PS)
Second: ACAAACAATCCATTTATAT (sugars l4 d11 l4, PS)
The calcium oscillation score of the first is lower: 0 % of control for the first, 46.2 % of control for the second.

Going from “ACAAACATCTAAACACCTCA (sugars l2 d14 l4, PS)” to “ACAAACCAACTCAACATTAC (sugars l4 d12 l4, PS)”, the calcium oscillation score rises from 72.6 % of control to 84.6 % of control.

First: ACAAACCAGTTACCATC (sugars l3 d10 l4, PS)
Second: ACAACAAACATCTAAACACC (sugars l3 d13 l4, PS)
The calcium oscillation score of the first is higher: 87.7 % of control for the first, 84.5 % of control for the second.

Compared with “ACAATTCTCAGCACACC (sugars l2 d11 l4, PS)”, “ACACCATCCAAGTCAAT (sugars l3 d10 l4, PS)” is lower in calcium oscillation score: 48.8 % of control for the first, 16.2 % of control for the second.

First: ACACCTCGTCAGCTAGCGTG (sugars l3 d14 l3, PS)
Second: ACACTGTCCTTTAAACA (sugars l4 d10 l3, PS)
The calcium oscillation score of the first is lower: 0 % of control for the first, 68.1 % of control for the second.

Compared with ACACTGTCGTCGAATG (sugars l3 d10 l3, PS), “ACAGATATTCATTCCCT (sugars l4 d11 l2, PS)” is higher in calcium oscillation score: 9.52 % of control for the first, 44.2 % of control for the second.
